For this assay, the target named is T1, human PKR1 receptors (Homo sapiens, UniProt Q8TCW9).
T1 construct: expressed in transfected cells; host or cells: RBL2H3 cells (rat basophilic leukaemia line) expressing human PKR1
T1 sequence (Q8TCW9 whole entry): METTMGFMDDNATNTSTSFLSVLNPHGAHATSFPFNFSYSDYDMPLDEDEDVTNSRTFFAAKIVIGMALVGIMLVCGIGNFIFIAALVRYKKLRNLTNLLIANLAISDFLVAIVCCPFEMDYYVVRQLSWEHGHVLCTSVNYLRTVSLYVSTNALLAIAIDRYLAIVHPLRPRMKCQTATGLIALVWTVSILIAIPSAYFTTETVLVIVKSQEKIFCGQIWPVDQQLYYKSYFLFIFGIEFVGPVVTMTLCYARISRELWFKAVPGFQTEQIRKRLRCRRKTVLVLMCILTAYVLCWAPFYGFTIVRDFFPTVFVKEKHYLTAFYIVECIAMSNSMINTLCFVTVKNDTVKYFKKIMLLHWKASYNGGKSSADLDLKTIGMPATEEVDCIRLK
Nature of the assay: PKR1 antagonist assay: block of PK1-mediated intracellular calcium release (FLIPR Tetra, Calcium 5 dye). It counts as cell-based. Particulars: RBL2H3 cells expressing human PKR1; 10 min pre-incubation, stimulation with PK1 at EC80; calcium fluorescence. The method, then:
Prokineticin receptor 1 (PKR1) antagonists may be functionally assessed by measurement of change in intracellular calcium levels induced by Gq mediated increase in inositol triphosphate (IP3) levels. The ability of a compound to block the intracellular release of calcium mediated by PK1 in RBL2H3 cells expressing human PKR1 receptors is determined as a measure of the compound's antagonist activity in vitro.
Approximately 10,000 cells per assay well are seeded in normal culture medium in a 384 well plate (Corning). Twenty-four hours after seeding, the cells are loaded with a calcium sensitive fluorescent dye by replacing the culture medium with assay buffer (1× Hanks buffered saline, 25 mM HEPES, 0.1% w/v fatty acid free BSA (bovine serum albumin), pH 7.4) containing 1 mM probenecid and 1× Calcium 5 Reagent (Molecular Devices). Cells are incubated at 37° C. for 1 hour to allow for dye uptake.
To test for antagonist activity, test compounds at a final concentration range between 0.32 nM-10 μM (diluted in assay buffer) are added to the assay wells and allowed to incubate for 10 minutes prior to stimulation with PK1. After incubation with test compounds the assay plate is placed in a FLIPR Tetra (Molecular Devices) and PK1 (diluted in assay buffer) is added at the determined EC80 concentration (final). Ligand-dependent changes in intracellular calcium levels are determined by measuring changes in fluorescence of the dye at […] following excitation at 485 nm.
For orientation: Calcium flux is commonly read through the fluorescence of an indicator in the cells.
A word on the IC50: it is the concentration at which inhibition is half-maximal. For the compound `Cc1nn(C)c(C)c1S(=O)(=O)N1CCC(C(=O)c2ccc(Cl)c(Cl)c2)CC1` [Example 50, (3,4-Dichlorophenyl)(1-((1,3,5-trimethyl-1H-pyrazol-4-yl)sulfonyl)piperidin-4-yl)methanone], the 50% inhibitory concentration (IC50) amounted to 2100 nM.

With `Cc1nn(C)c(C)c1S(=O)(=O)N1CCC(Nc2ccc(Cl)cc2)CC1` [Example 51, N-(4-Chlorophenyl)-1-((1,3,5-trimethyl-1H-pyrazol-4-yl)sulfonyl)piperidin-4-amine], the half-maximal inhibitory concentration (IC50) turned out to be 1500 nM.

Consider `Cc1nn(C)c(C)c1S(=O)(=O)N1CCC(Nc2ccc(Cl)c(Cl)c2)CC1` [Example 52, N-(3,4-Dichlorophenyl)-1-((1,3,5-trimethyl-1H-pyrazol-4-yl)sulfonyl)piperidin-4-amine], for which the IC50 was determined as 2700 nM.

As to `Cc1nn(C)c(C)c1S(=O)(=O)N1CCC(N(C)c2ccc(Cl)c(Cl)c2)CC1` [Example 54], the IC50 came out at 5200 nM.

`Cc1nn(C)c(C)c1S(=O)(=O)N1CCC(Cc2ccc(Cl)cc2)CC1` [Example 55, 4-(4-Chlorobenzyl)-1-((1,3,5-trimethyl-1H-pyrazol-4-yl)sulfonyl)piperidine]: the IC50 turned out to be 520 nM.

Regarding `Cc1nn(C)c(C)c1S(=O)(=O)N1CCC(Cc2ccc(Cl)c(Cl)c2)CC1` [Example 56, 4-(3,4-Dichlorobenzyl)-1-((1,3,5-trimethyl-1H-pyrazol-4-yl)sulfonyl)piperidine], the half-maximal inhibitory concentration (IC50) came to 950 nM.

`Cc1nn(C)c(C)c1S(=O)(=O)N1CCC(O)(Cc2ccc(Cl)cc2)CC1` [Example 57, 4-(4-Chlorobenzyl)-1-((1,3,5-trimethyl-1H-pyrazol-4-yl)sulfonyl)piperidin-4-ol]: the IC50 stood at 1600 nM.

For `COC1(Cc2ccc(Cl)cc2)CCN(S(=O)(=O)c2c(C)nn(C)c2C)CC1` [Example 58, 4-(4-Chlorobenzyl)-4-methoxy-1-((1,3,5-trimethyl-1H-pyrazol-4-yl)sulfonyl)piperidine], the half-inhibitory concentration (IC50) was determined as 2400 nM.

Consider `Cc1nn(C)c(C)c1S(=O)(=O)N1CCC(O)(Cc2ccc(Cl)cc2Cl)CC1` [Example 59, 4-(2,4-Dichlorobenzyl)-1-((1,3,5-trimethyl-1H-pyrazol-4-yl)sulfonyl)piperidin-4-ol], for which the IC50 worked out at 2400 nM.

`COCC1(Cc2ccc(Cl)cc2)CCN(S(=O)(=O)c2c(C)nn(C)c2C)CC1` [Example 60, 4-(4-Chlorobenzyl)-4-(methoxymethyl)-1-((1,3,5-trimethyl-1H-pyrazol-4-yl)sulfonyl)piperidine]: the IC50 worked out at 900 nM.

As for `CCOC(=O)C1(Cc2ccc(Cl)cc2)CCN(S(=O)(=O)c2c(C)nn(C)c2C)CC1` [Example 61, Ethyl 4-(4-chlorobenzyl)-1-((1,3,5-trimethyl-1H-pyrazol-4-yl)sulfonyl)piperidine-4-carboxylate], the IC50 stood at 1080 nM.

In the case of `CCOC(=O)C1(Cc2ccc(Br)cc2)CCN(S(=O)(=O)c2c(C)n[nH]c2C)CC1` [Example 62, Ethyl 4-(4-bromobenzyl)-1-((3,5-dimethyl-1H-pyrazol-4-yl)sulfonyl)piperidine-4-carboxylate], the IC50 stood at 680 nM.

As to `CCOC(=O)C1(Cc2ccc(Br)cc2)CCN(S(=O)(=O)c2c(C)nn(C)c2C)CC1` [Example 63, Ethyl 4-(4-bromobenzyl)-1-((1,3,5-trimethyl-1H-pyrazol-4-yl)sulfonyl)piperidine-4-carboxylate], the IC50 came to 640 nM.

As to `Cc1n[nH]c(C)c1S(=O)(=O)N1CCC(C#N)(Cc2ccc(Cl)cc2)CC1` [Example 64, 4-(4-Chlorobenzyl)-1-((3,5-dimethyl-1H-pyrazol-4-yl)sulfonyl)piperidine-4-carbonitrile], the IC50 came out at 890 nM.

Take `Cc1n[nH]c(C)c1S(=O)(=O)N1CCC(C#N)(Cc2ccc(Cl)cc2Cl)CC1` [Example 65, 4-(2,4-Dichlorobenzyl)-1-((3,5-dimethyl-1H-pyrazol-4-yl)sulfonyl)piperidine-4-carbonitrile]: the IC50 is 940 nM.

With `CCc1n[nH]c(CC)c1S(=O)(=O)N1CCC(Cc2ccc(Cl)cc2)CC1` [Example 66, 4-(4-Chlorobenzyl)-1-((3,5-diethyl-1H-pyrazol-4-yl)sulfonyl)piperidine], the IC50 is 1010 nM.

For `Cc1n[nH]c(C)c1S(=O)(=O)N1CCC(Cc2ccc(Cl)cc2)CC1` [Example 67, 4-(4-Chlorobenzyl)-1-((3,5-dimethyl-1H-pyrazol-4-yl)sulfonyl)piperidine], the IC50 worked out at 520 nM.

For `Cc1nn(C)c(Cl)c1S(=O)(=O)N1CCC(Cc2ccc(Cl)cc2)CC1` [Example 68, 1-((5-Chloro-1,3-dimethyl-1H-pyrazol-4-yl)sulfonyl)-4-(4chlorobenzyl)piperidine], the IC50 was 2020 nM.

As for `Cc1nn(C)c(C)c1S(=O)(=O)N1CCC(O)(Cc2ccc(Cl)c(Cl)c2)CC1` [Example 69, 4-(3,4-Dichlorobenzyl)-1-((1,3,5-trimethyl-1H-pyrazol-4-yl)sulfonyl)piperidin-4-ol], the IC50 was determined as 6470 nM.

For `Cc1n[nH]c(C)c1S(=O)(=O)N1CCC(O)(Cc2ccc(Cl)c(Cl)c2)CC1` [Example 70, 4-(3,4-Dichlorobenzyl)-1-((3,5-dimethyl-1H-pyrazol-4-yl)sulfonyl)piperidin-4-ol], the half-maximal inhibitory concentration (IC50) was found to be 8620 nM.

For the compound `Cc1n[nH]c(C)c1S(=O)(=O)N1CCC(Cc2ccc(Cl)c(F)c2)CC1` [Example 71, 4-(4-Chloro-3-fluorobenzyl)-1-((3,5-dimethyl-1H-pyrazol-4-yl)sulfonyl)piperidine], the IC50 is 780 nM.

Regarding `Cc1nn(C)c(C)c1S(=O)(=O)N1CCC(Cc2ccc(Cl)c(F)c2)CC1` [Example 72, 4-(4-Chloro-3-fluorobenzyl)-1-((1,3,5-trimethyl-1H-pyrazol-4-yl)sulfonyl)piperidine], the IC50 worked out at 440 nM.

Regarding `COc1cc(Cl)ccc1OC1CCN(S(=O)(=O)c2c(C)n[nH]c2C)CC1` [Example 73, 4-(4-Chloro-2-methoxyphenoxy)-1-((3,5-dimethyl-1H-pyrazol-4-yl)sulfonyl)piperidine], the IC50 was 200 nM.

`COc1cc(Cl)ccc1OC1CCN(S(=O)(=O)c2c(C)nn(C)c2C)CC1` [Example 74, 4-(4-Chloro-2-methoxyphenoxy)-1-((1,3,5-trimethyl-1H-pyrazol-4-yl)sulfonyl)piperidine]: the IC50 amounted to 170 nM.

As to `Cc1n[nH]c(C)c1S(=O)(=O)N1CCC(O)(Cc2ccc(Cl)cc2F)CC1` [Example 75, 4-(4-Chloro-2-fluorobenzyl)-1-((3,5-dimethyl-1H-pyrazol-4-yl)sulfonyl)piperidin-4-ol], the IC50 is 6980 nM.

Take `Cc1n[nH]c(C)c1S(=O)(=O)N1CCC(Oc2ccccc2F)CC1` [Example 76, 1-((3,5-Dimethyl-1H-pyrazol-4-yl)sulfonyl)-4-(2-fluorophenoxy)piperidine]: the IC50 worked out at 3730 nM.

In the case of `Cc1nn(C)c(C)c1S(=O)(=O)N1CCC(Oc2ncc(Cl)cc2F)CC1` [Example 77, 5-Chloro-3-fluoro-2-((1-((1,3,5-trimethyl-1H-pyrazol-4-yl)sulfonyl)piperidin-4-yl)oxy)pyridine], the concentration for half-maximal inhibition (IC50) is 3190 nM.

On to `COc1cc(Cl)ccc1CC1CCN(S(=O)(=O)c2c(C)n[nH]c2C)CC1` [Example 78, 4-(4-Chloro-2-methoxybenzyl)-1-((3,5-dimethyl-1H-pyrazol-4-yl)sulfonyl)piperidine], for which the IC50 was 70 nM.

Turning to `COc1cc(Cl)ccc1CC1CCN(S(=O)(=O)c2c(C)nn(C)c2C)CC1` [Example 79, 4-(4-Chloro-2-methoxybenzyl)-1-((1,3,5-trimethyl-1H-pyrazol-4-yl)sulfonyl)piperidine], the IC50 stood at 50 nM.

With `Cc1n[nH]c(C)c1S(=O)(=O)N1CCC(F)(Cc2ccc(Cl)cc2F)CC1` [Example 80, 4-(4-Chloro-2-fluorobenzyl)-1-((3,5-dimethyl-1H-pyrazol-4-yl)sulfonyl)-4-fluoropiperidine], the IC50 was 810 nM.

As to `Cc1nn(C)c(C)c1S(=O)(=O)N1CCC(F)(Cc2ccc(Cl)cc2F)CC1` [Example 81, 4-(4-Chloro-2-fluorobenzyl)-4-fluoro-1-((1,3,5-trimethyl-1H-pyrazol-4-yl)sulfonyl)piperidine], the IC50 was 670 nM.

Turning to `Cc1n[nH]c(C)c1S(=O)(=O)N1CCC(Cc2ccc(Cl)cc2F)CC1` [Example 82, 4-(4-Chloro-2-fluorobenzyl)-1-((3,5-dimethyl-1H-pyrazol-4-yl)sulfonyl)piperidine], the IC50 was found to be 1020 nM.

In the case of `Cc1nn(C)c(C)c1S(=O)(=O)N1CCC(Cc2ccc(Cl)cc2F)CC1` [Example 83, 4-(4-Chloro-2-fluorobenzyl)-1-((1,3,5-trimethyl-1H-pyrazol-4-yl)sulfonyl)piperidine], the IC50 came out at 730 nM.

For the compound `COc1cc(Cl)cnc1OC1CCN(S(=O)(=O)c2c(C)nn(C)c2C)CC1` [Example 84, 5-Chloro-3-methoxy-2-((1-((1,3,5-trimethyl-1H-pyrazol-4-yl)sulfonyl)piperidin-4-yl)oxy)pyridine], the IC50 was determined as 720 nM.

As to `COc1cc(Cl)cnc1OC1CCN(S(=O)(=O)c2c(C)n[nH]c2C)CC1` [Example 85, 5-Chloro-2-((1-((3,5-dimethyl-1H-pyrazol-4-yl)sulfonyl)piperidin-4-yl)oxy)-3-methoxypyridine], the IC50 was determined as 1230 nM.

The values are drawn from US20130324576A1, “THERAPEUTIC COMPOUNDS” (Takeda Pharmaceutical Company Limited, priority 2012, published 2013).
